Test results published in US9073855B2, “BCL-2 selective apoptosis-inducing agents for the treatment of cancer and immune diseases” (AbbVie Inc., priority 2008, dated 2015).

Columns and labels:
GST-Bcl-2 = GST-Bcl-2 (Homo sapiens, UniProt P10415); assay: TR-FRET binding assay, GST-Bcl-2 with F-Bak peptide probe; conditions: for Ki: TR-FRET Binding Affinity
In short: (§1)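 Competitive TR-FRET: GST-fusion protein, fluorescent Bak peptide probe and Tb-labelled anti-GST antibody incubated with compound dilution series (starting 50 μM as 2× stock, 10% DMSO) for 3 h at RT. Excitation 340/35 nm; Ki derived via Wang's exact competitive-binding equation.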

GST-Bcl-XL = GST-Bcl-XL (Homo sapiens, UniProt Q07817); assay: TR-FRET binding assay, GST-Bcl-XL with F-Bak peptide probe; conditions: TR-FRET Binding Affinity
GST-Bcl-XL, sequence (Q07817 whole entry): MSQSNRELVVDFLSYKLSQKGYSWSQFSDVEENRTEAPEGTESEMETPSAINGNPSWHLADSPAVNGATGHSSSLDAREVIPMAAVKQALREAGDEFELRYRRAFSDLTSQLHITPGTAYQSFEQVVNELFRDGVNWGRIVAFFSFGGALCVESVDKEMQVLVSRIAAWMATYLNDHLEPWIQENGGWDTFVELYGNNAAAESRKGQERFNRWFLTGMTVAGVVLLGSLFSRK
In short: as §1

[1] = GST-Bcl-XL, F-Bak peptide probe
[2] = TR-FRET, Bcl-XL Ki divided by Bcl-2 Ki
[3] = ratio of TR-FRET Ki values, Bcl-XL over Bcl-2

GST-Bcl-2, sequence (P10415 whole entry, the tested form may be a part): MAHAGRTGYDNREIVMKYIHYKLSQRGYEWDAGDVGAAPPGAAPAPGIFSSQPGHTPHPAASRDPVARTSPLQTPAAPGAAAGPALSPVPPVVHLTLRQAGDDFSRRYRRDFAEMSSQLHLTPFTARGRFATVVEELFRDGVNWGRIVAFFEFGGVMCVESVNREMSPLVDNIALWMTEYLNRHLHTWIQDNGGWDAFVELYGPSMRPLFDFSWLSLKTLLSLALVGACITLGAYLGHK

SMILES | Ki (GST-Bcl-2; GST-Bcl-2, F-Bak peptide probe) [nM] | Ki (GST-Bcl-XL; [1]) [nM] | Ki (GST-Bcl-2) [nM] | Ki (GST-Bcl-XL) [nM] | Binding selectivity ratio (Bcl-XL Ki/Bcl-2 Ki) (GST-Bcl-2; [2]) | Binding selectivity ratio (Bcl-XL Ki/Bcl-2 Ki) (GST-Bcl-2; [3])
O=C(NS(=O)(=O)c1ccc(NCCCN2CCCC2)c([N+](=O)[O-])c1)c1ccc(N2CCN(Cc3ccccc3-c3ccc(Cl)cc3)CC2)cc1Oc1ccccc1 [Example 91, 4-{4-[(4′-chloro-1,1′-biphenyl-2-yl)methyl]piperazin-1-yl}-N-({3-nitro-4-[(3-pyrrolidin-1-ylpropyl)amino]phenyl}sulfonyl)-2-phenoxybenzamide] | 0.193 | 10.2 |  |  |  | 
CC1(C)CCC(CN2CCN(c3ccc(C(=O)NS(=O)(=O)c4cnc(OCC5(F)CCOCC5)c(F)c4)c(Oc4cccc5[nH]cnc45)c3)CC2)=C(c2ccc(Cl)cc2)C1 [Example 442, 2-(1H-benzimidazol-4-yloxy)-4-(4-{[2-(4-chlorophenyl)-4,4-dimethylcyclohex-1-en-1-yl]methyl}piperazin-1-yl)-N-({5-fluoro-6-[(4-fluorotetrahydro-2H-pyran-4-yl)methoxy]pyridin-3-yl}sulfonyl)benzamide] |  |  | < 0.01 | 33.6 |  | 
CC1(C)CCC(CN2CCN(c3ccc(C(=O)NS(=O)(=O)c4ccc(NC[C@H]5CN(C6CC6)CCO5)c([N+](=O)[O-])c4)c(Oc4cccc5[nH]ncc45)c3)CC2)=C(c2ccc(Cl)cc2)C1 [Example 529, 4-(4-{[2-(4-chlorophenyl)-4,4-dimethylcyclohex-1-en-1-yl]methyl}piperazin-1-yl)-N-{[4-({[(2S)-4-cyclopropylmorpholin-2-yl]methyl}amino)-3-nitrophenyl]sulfonyl}-2-(1H-indazol-4-yloxy)benzamide] |  |  | < 0.01 | 8.28 | >828.4 | 
CC1(C)CCC(CN2CCN(c3ccc(C(=O)NS(=O)(=O)c4ccc(NCC5(F)CCOCC5)c([N+](=O)[O-])c4)c(Oc4cccc5[nH]cnc45)c3)CC2)=C(c2ccc(Cl)cc2)C1 [Example 441, 2-(1H-benzimidazol-4-yloxy)-4-(4-{[2-(4-chlorophenyl)-4,4-dimethylcyclohex-1-en-1-yl]methyl}piperazin-1-yl)-N-[(4-{[(4-fluorotetrahydro-2H-pyran-4-yl)methyl]amino}-3-nitrophenyl)sulfonyl]benzamide] |  |  | < 0.01 | 24.2 |  | 
O=C(NS(=O)(=O)c1ccc(NCCn2ccnn2)c([N+](=O)[O-])c1)c1ccc(N2CCN(Cc3ccccc3-c3ccc(Cl)cc3)CC2)cc1Oc1ccccc1 [Example 164, 4-{4-[(4′-chloro-1,1′-biphenyl-2-yl)methyl]piperazin-1-yl}-N-[(3-nitro-4-{[2-(1H-1,2,3-triazol-1-yl)ethyl]amino}phenyl)sulfonyl]-2-phenoxybenzamide] | 0.963 | 138 |  |  |  | 
COCCOCCN1CC[C@@H](Nc2ccc(S(=O)(=O)NC(=O)c3ccc(N4CCN(CC5=C(c6ccc(Cl)cc6)CC(C)(C)CC5)CC4)cc3Oc3cccc4[nH]cnc34)cc2[N+](=O)[O-])C1 [Example 429, 2-(1H-benzimidazol-4-yloxy)-4-(4-{[2-(4-chlorophenyl)-4,4-dimethylcyclohex-1-en-1-yl]methyl}piperazin-1-yl)-N-{[4-({(3R)-1-[2-(2-methoxyethoxy)ethyl]pyrrolidin-3-yl}amino)-3-nitrophenyl]sulfonyl}benzamide] | < 0.01 | 1.41 |  |  |  | 140.7
CC1(C)CCC(CN2CCN(c3ccc(C(=O)NS(=O)(=O)c4cnc(OCC5CCOCC5)c(F)c4)c(Oc4cccc5[nH]ncc45)c3)CC2)=C(c2ccc(Cl)cc2)C1 [Example 487, 4-(4-{[2-(4-chlorophenyl)-4,4-dimethylcyclohex-1-en-1-yl]methyl}piperazin-1-yl)-N-{[5-fluoro-6-(tetrahydro-2H-pyran-4-ylmethoxy)pyridin-3-yl]sulfonyl}-2-(1H-indazol-4-yloxy)benzamide] |  |  | 0.033 | 75.4 | 2287.2 | 
CC1(C)CCC(CN2CCN(c3ccc(C(=O)NS(=O)(=O)c4cnc(OC[C@@H]5C[C@H]6C[C@@H]5C[C@@]6(C)O)c(Cl)c4)c(Oc4cccc5[nH]ncc45)c3)CC2)=C(c2ccc(Cl)cc2)C1 [Example 520, N-[(5-chloro-6-{[(1R,2R,4R,5R)-5-hydroxy-5-methylbicyclo[2.2.1]hept-2-yl]methoxy}pyridin-3-yl)sulfonyl]-4-(4-{[2-(4-chlorophenyl)-4,4-dimethylcyclohex-1-en-1-yl]methyl}piperazin-1-yl)-2-(1H-indazol-4-yloxy)benzamide] |  |  | < 0.01 | 15.4 | >1537.8 | 
O=C(NS(=O)(=O)c1ccc(NCCn2nccn2)c([N+](=O)[O-])c1)c1ccc(N2CCN(Cc3ccccc3-c3ccc(Cl)cc3)CC2)cc1Oc1ccccc1 [Example 165, 4-{4-[(4′-chloro-1,1′-biphenyl-2-yl)methyl]piperazin-1-yl}-N-[(3-nitro-4-{[2-(2H-1,2,3-triazol-2-yl)ethyl]amino}phenyl)sulfonyl]-2-phenoxybenzamide] | 0.823 | 36.6 |  |  |  | 
CC1(C)CCC(CN2CCN(c3ccc(C(=O)NS(=O)(=O)c4cnc(OCC5(F)CCOCC5)c(C#N)c4)c(Oc4cccc5[nH]ccc45)c3)CC2)=C(c2ccc(Cl)cc2)C1 [Example 393, 4-(4-{[2-(4-chlorophenyl)-4,4-dimethylcyclohex-1-en-1-yl]methyl}piperazin-1-yl)-N-({5-cyano-6-[(4-fluorotetrahydro-2H-pyran-4-yl)methoxy]pyridin-3-yl}sulfonyl)-2-(1H-indol-4-yloxy)benzamide] | 0.083 | 92.1 |  |  |  | 1109.6
O=C(NS(=O)(=O)c1ccc(NCC2CCOCC2)c([N+](=O)[O-])c1)c1ccc(N2CCN(Cc3cc(OCCN4CCOCC4)ccc3-c3ccc(Cl)cc3)CC2)cc1Oc1ccc2[nH]ccc2c1 [Example 127, 4-(4-{[4′-chloro-4-(2-morpholin-4-ylethoxy)-1,1′-biphenyl-2-yl]methyl}piperazin-1-yl)-2-(1H-indol-5-yloxy)-N-({3-nitro-4-[(tetrahydro-2H-pyran-4-ylmethyl)amino]phenyl}sulfonyl)benzamide] | 0.459 | > 660 |  |  |  | 
O=C(NS(=O)(=O)c1ccc(NCCc2ccncc2)c([N+](=O)[O-])c1)c1ccc(N2CCN(Cc3ccccc3-c3ccc(Cl)cc3)CC2)cc1Oc1ccccc1 [Example 169, 4-{4-[(4′-chloro-1,1′-biphenyl-2-yl)methyl]piperazin-1-yl}-N-({3-nitro-4-[(2-pyridin-4-ylethyl)amino]phenyl}sulfonyl)-2-phenoxybenzamide] | 0.97 | 88.6 |  |  |  | 
O=C(NS(=O)(=O)c1ccc(NC2CCN(S(=O)(=O)c3ccccc3)CC2)c([N+](=O)[O-])c1)c1ccc(N2CCN(Cc3ccccc3-c3ccc(Cl)cc3)CC2)cc1Oc1ccccc1 [Example 157, 4-{4-[(4′-chloro-1,1′-biphenyl-2-yl)methyl]piperazin-1-yl}-N-[(3-nitro-4-{[1-(phenylsulfonyl)piperidin-4-yl]amino}phenyl)sulfonyl]-2-phenoxybenzamide] | 4.45 | > 660 |  |  |  | 
CC1(C)CCC(CN2CCN(c3ccc(C(=O)NS(=O)(=O)c4ccc(NC5CCN(CCCF)CC5)c([N+](=O)[O-])c4)c(Oc4ccc5[nH]ccc5c4)c3)CC2)=C(c2ccc(Cl)cc2)C1 [Example 235, 4-(4-{[2-(4-chlorophenyl)-4,4-dimethylcyclohex-1-en-1-yl]methyl}piperazin-1-yl)-N-[(4-{[1-(3-fluoropropyl)piperidin-4-yl]amino}-3-nitrophenyl)sulfonyl]-2-(1H-indol-5-yloxy)benzamide] | 0.252 | 58.2 |  |  |  | 
